Laboratory results: US10500249B2, “Compositions and methods for preventing or treating diseases, conditions, or processes characterized by aberrant fibroblast proliferation and extracellular matrix deposition” (MOERAE MATRIX, INC., priority 2014, dated 2019)
Entries after “also recorded” stand apart in the source; their conditions may differ. Ends that are not written are not given here.

Tests used:
[1] = system: bleomycin-induced lung fibrosis; assay: Bleomycin mouse model of pulmonary fibrosis (prevention model); format: in vivo, C57BL/6 mice; conditions: for collagen accumulation (Masson's Trichrome staining) / fibrotic loci formation / lung fibrosis (H&E staining): daily day 7 to 21 post bleomycin
Protocol: (§1) A mouse model of pulmonary fibrosis was generated by administering 0.025 U of bleomycin/PBS intratracheally to C57BL/6 mice. […] At 21 day post bleomycin delivery (for prevention model) or 28 post bleomycin delivery (for treatment model), groups of mice were sacrificed with a sodium pentobarbital injection (120 mg/kg) and the chest cavity was opened. The right mainstem bronchus was ligated and the right lung was removed. The trachea was cannulated and the left lung was perfused with 4% formaldehyde at 21 cm H2O pressure. The tissue blocks then were embedded in paraffin, and […] sections were prepared for staining. Sections from each animal were stained with hematoxylin and eosin (H&E) to visualize cells or with Masson's Trichrome staining to highlight collagen deposition. […] Stained sections were mounted onto a labeled glass slide with organic mounting medium.
Briefly, fibrotic loci in the lungs of the mice were induced by delivering intratracheally about 0.025 U of bleomycin (dissolved in PBS) to C57BL/6 mice. […] Briefly, mice were sacrificed with a sodium pentobarbital injection (120 mg/kg) and the chest cavity was opened. The right mainstem bronchus was ligated and the right lung was removed. The trachea was cannulated and the left lung was perfused with 4% formaldehyde at 21 cm H2O pressure. The tissue blocks then were embedded in paraffin, and […] sections were prepared, and stained with hematoxylin and eosin (H&E; for pathological examination) or Masson's Trichrome (for collagen staining)
Next, total collagen levels in the lungs of the bleomycin-injured mice (FIG. 12) were analyzed quantitatively by computing a constant conversion factor (7.5) for collagen from hydroxyproline concentrations (Neuman R. and Logan M, J Biol Chem., 186(2):549-56, 1950, incorporated by reference).
Next, the effect of increasing doses of MK2 peptide inhibitors on collagen deposition was examined in vivo using the bleomycin mouse model of idiopathic pulmonary fibrosis (prevention model). Briefly, C57-BL/6 mice were subjected to bleomycin injury at day 0.

[2] = system: bleomycin-induced lung fibrosis; assay: Bleomycin mouse model of pulmonary fibrosis (treatment model); format: in vivo, C57BL/6 mice; conditions: for collagen deposition (hydroxyproline assay, whole left lung): day 28 post bleomycin; for lung scarring, histology (H&E and Masson's blue trichrome): daily day 14 to 28 post bleomycin
Protocol: as §1
The classic bleomycin model, as depicted in FIG. 10, has been used widely in the literature in the pre-fibrotic stage to test efficacy of any intervention.
More specifically, fibrotic loci in the lungs were induced by delivering intratracheally about 0.025 U of bleomycin (dissolved in PBS) to C57BL/6 mice. […] Mice were sacrificed with a sodium pentobarbital injection (120 mg/kg) and the chest cavity was opened. The right mainstem bronchus was ligated and the right lung is removed. The trachea was cannulated and the left lung was perfused with 4% formaldehyde at 21 cm H2O pressure. The tissue blocks then were embedded in paraffin, and […] sections were prepared, and stained with hematoxylin and eosin (H&E; for pathological examination) or Masson's Trichrome (for collagen staining)
Next, collagen deposition was determined quantitatively by using the standard hydroxyproline assay with whole left lung. Total collagen (soluble and insoluble) deposition was assessed by analyzing hydroxyproline concentrations in murine lungs day 28 post bleomycin injury.

splenic T cells = assay: Autologous mixed lymphocyte reaction, splenic T cells of bleomycin mice; format: in vivo, C57-BL/6 mice
Excerpt: Recent studies highlighted a key role for T lymphocytes in bleomycin-induced fibrosis (Wilson, M. et al., The Journal of Experimental Medicine, 207(3): 535-552, 2010). […] Specifically, the ability of C57BL/6 purified antigen-presenting cells to induce proliferation in C57BL/6 T lymphocytes was examined in the assay.
C57-BL/6 mice were subjected to bleomycin injury at day 0. […] Splenic T cells were isolated and cultured alone or in the presence of autologous antigen presenting cells (APCs from C57-BL/6 mice) or stimulated with antibodies against CD3 (α-CD3) for 48 h. The cells then were radiolabeled with […] thymidine for 16 h and assessed for proliferation rates.

[3] = system: phospho-Thr^334-MAPKAPK2 (activated MK2); assay: Activated MK2 immunostaining of lung sections, bleomycin treatment model; format: in vivo, C57-BL/6 mice; conditions: day 14 to 28
Excerpt: Briefly, C57-BL/6 mice were subjected to bleomycin injury at day 0. […] Formalin-fixed lung tissue sections were immunostained against phospho-Thr^334 MK2. Control staining was with biotinylated secondary IgG antibody. Streptavidin-conjugated horseradish peroxidase was used with 3,3′-diaminobenzidene as substrate and nuclei was counterstained with hematoxylin.

TNF-α = assay: Plasma cytokine level, bleomycin treatment model; format: in vivo, mouse; conditions: 24 hours after final administration
MAPKAP-K2 (h) = MAPKAP-K2 (h) (Homo sapiens, UniProt P49137); assay: Kinase Profiling Assay; format: biochemical; conditions: read-out: inhibition of kinase activity of MK2
Protocol: (§2) Every kinase activity measurement was conducted in duplicate.
(§3) Specifically, in these assays, a positively charged substrate is phosphorylated with a radiolabeled phosphate group from an ATP if the kinase is not inhibited by an inhibitor peptide. The positively charged substrate then is attracted to a negatively charged filter membrane, quantified with a scintillation counter, and compared to a 100% activity control.
(§4) In addition to determining the IC50 of the compound, the specificity of MK2 inhibitory peptides was assessed by examining activities of all 266 human kinases available for testing in the Millipore kinase profiling service (Table 1).

MAPKAP-K3 (h) = MAPKAP-K3 (h) (Homo sapiens, UniProt Q16644); assay: Kinase Profiling Assay; format: biochemical; conditions: read-out: inhibition of kinase activity of MK3
Protocol: as §2, §3, §4

TrkB (h) = TrkB (h) (Homo sapiens, UniProt Q16620); assay: Kinase Profiling Assay; format: biochemical; conditions: read-out: inhibition of kinase activity of TrkB
Protocol: as §2, §3, §4

p70S6K (h) = target: T1, p70S6K (h) (Homo sapiens, UniProt P23443); assay: Kinase Profiling Assay; format: biochemical
T1 construct: purchased Millipore
Protocol: as §2, §3, §4

MLCK (h) = assay: Kinase Profiling Assay; format: biochemical, human; conditions: 100 μM
Protocol: as §2, §3, §4

SGK (h) = assay: Kinase Profiling Assay; format: biochemical, human; conditions: 100 μM
Protocol: as §2, §3, §4

IL-6 = assay: Plasma cytokine level, bleomycin treatment model; format: in vivo, mouse; conditions: 24 hours after final administration
[4] = system: alpha-smooth muscle actin (α-SMA); assay: α-SMA immunostaining of lung sections, bleomycin treatment model; format: in vivo, C57-BL/6 mice; conditions: day 14 through 28
Excerpt: C57-BL/6 mice were subjected to bleomycin injury at day 0. […] Formalin-fixed lung tissue sections were immunostained against α-SMA. Control staining was with biotinylated secondary IgG antibody. Streptavidin-conjugated horseradish peroxidase was used with 3,3′-diaminobenzidene as substrate and nuclei was counterstained with hematoxylin. Original magnifications: 20×

[5] = system: human fetal lung fibroblasts (IMR-90), α-SMA; assay: TGF-β-induced myofibroblast activation, α-SMA immunoblot; format: cell-based; conditions: 1 h pre-treatment, then TGF-β1 (2 ng/ml) 48 h
Excerpt: Cell lysates were immunoblotted against antibodies for α-SMA (a marker for myofibroblast activation) and GAPDH (loading control).

[6] = system: human fetal lung fibroblasts (IMR-90), fibronectin; assay: TGF-β-mediated fibronectin expression; format: cell-based; conditions: 1 h pre-treatment, then TGF-β1 (2 ng/ml) 72 h
Protocol: Fibronection was measured as secreted fragments in the conditioned media. Equal amounts (14 μg) of total proteins from the conditioned media were loaded in each lane.

T1 sequence (P23443 whole entry): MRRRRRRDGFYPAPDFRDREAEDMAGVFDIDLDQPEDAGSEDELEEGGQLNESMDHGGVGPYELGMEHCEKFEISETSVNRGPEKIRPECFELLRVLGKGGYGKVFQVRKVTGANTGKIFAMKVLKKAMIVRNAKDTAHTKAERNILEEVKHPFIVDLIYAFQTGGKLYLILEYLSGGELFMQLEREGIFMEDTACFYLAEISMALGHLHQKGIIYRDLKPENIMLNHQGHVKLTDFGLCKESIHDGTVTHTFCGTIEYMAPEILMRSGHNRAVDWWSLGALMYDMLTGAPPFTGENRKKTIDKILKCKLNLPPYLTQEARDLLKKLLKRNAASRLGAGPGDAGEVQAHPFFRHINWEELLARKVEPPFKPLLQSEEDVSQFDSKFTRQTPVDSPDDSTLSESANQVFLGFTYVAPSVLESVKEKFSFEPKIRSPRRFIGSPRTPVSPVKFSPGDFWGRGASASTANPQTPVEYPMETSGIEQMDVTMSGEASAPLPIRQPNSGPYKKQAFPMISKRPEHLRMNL
TrkB (h), sequence (Q16620 32-822): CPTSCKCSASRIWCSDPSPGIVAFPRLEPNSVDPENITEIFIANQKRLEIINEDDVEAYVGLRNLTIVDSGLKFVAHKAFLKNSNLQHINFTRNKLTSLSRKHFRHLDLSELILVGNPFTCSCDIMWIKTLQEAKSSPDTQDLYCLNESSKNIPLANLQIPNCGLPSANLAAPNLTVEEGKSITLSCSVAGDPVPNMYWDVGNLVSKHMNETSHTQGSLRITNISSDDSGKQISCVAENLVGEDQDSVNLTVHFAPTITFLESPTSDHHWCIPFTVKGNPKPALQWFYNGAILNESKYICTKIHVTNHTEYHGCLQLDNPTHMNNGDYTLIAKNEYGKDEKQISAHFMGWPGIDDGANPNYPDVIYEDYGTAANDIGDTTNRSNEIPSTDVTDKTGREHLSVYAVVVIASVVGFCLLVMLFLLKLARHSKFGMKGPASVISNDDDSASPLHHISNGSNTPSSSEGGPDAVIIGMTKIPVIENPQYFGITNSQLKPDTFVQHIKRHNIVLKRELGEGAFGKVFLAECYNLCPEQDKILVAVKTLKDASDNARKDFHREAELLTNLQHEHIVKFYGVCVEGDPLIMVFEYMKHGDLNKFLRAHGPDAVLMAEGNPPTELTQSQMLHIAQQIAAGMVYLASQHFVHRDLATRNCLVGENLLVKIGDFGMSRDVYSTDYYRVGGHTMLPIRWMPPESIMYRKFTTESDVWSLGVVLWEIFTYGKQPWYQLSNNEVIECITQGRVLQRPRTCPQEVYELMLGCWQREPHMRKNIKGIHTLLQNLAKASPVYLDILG
MAPKAP-K3 (h), sequence (Q16644 whole entry): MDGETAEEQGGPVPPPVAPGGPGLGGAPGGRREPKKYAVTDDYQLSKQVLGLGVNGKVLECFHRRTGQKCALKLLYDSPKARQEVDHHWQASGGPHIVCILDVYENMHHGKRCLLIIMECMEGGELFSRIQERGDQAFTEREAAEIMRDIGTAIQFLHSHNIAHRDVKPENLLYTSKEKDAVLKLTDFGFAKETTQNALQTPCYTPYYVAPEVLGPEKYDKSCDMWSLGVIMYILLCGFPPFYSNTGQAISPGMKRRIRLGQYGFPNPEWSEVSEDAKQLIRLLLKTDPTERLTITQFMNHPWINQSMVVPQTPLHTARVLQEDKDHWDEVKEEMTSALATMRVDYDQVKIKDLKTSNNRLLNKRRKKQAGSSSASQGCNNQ
MAPKAP-K2 (h), sequence (P49137 whole entry): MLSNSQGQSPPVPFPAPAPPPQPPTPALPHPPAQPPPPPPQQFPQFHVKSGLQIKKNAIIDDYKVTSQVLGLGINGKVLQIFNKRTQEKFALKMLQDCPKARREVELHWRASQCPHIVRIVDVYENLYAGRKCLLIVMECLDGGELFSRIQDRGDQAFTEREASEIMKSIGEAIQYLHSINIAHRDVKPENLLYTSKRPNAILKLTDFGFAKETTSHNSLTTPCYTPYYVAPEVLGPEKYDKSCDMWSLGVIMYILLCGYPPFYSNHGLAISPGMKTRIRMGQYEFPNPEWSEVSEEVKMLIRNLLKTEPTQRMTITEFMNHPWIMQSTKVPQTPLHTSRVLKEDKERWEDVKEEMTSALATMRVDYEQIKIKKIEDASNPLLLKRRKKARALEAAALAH

Sequence: YARAAARQARAKALARQLGVAA [MMI-0100]
- collagen levels in the lung (Masson's blue trichrome staining), dose response ([1]; 25, 50 or 75 μg/kg daily IP, day 7 through day 21): prevents fibrosis due to bleomycin injury in a dose-dependent manner; also recorded: decrease in collagen levels
- collagen accumulation (Masson's Trichrome staining) ([1]; intraperitoneal): reduced collagen accumulation
- fibrotic loci formation / lung fibrosis (H&E staining) ([1]; intraperitoneal): protects against bleomycin-induced lung fibrosis; also recorded: significantly reduced development of fibrotic loci formation
- collagen accumulation (Masson's Trichrome staining) ([1]; nebulization): reduced collagen accumulation
- fibrotic loci formation / lung fibrosis (H&E staining) ([1]; nebulization): protects against bleomycin-induced lung fibrosis; also recorded: significantly reduced development of fibrotic loci formation
- collagen deposition (hydroxyproline assay, whole left lung) ([2]; 50 μg/kg/day IP from day 14): arrests significant collagen deposition; also recorded: significantly arrested further progression of collagen deposition
- collagen deposition (hydroxyproline assay, whole left lung) ([2]; 50 μg/kg/day nebulizer from day 14): arrests significant collagen deposition; also recorded: significantly arrested further progression of collagen deposition
- lung scarring, histology (H&E and Masson's blue trichrome) ([2]; intraperitoneal): ameliorates bleomycin-induced lung fibrosis; also recorded: rescued
- lung scarring, histology (H&E and Masson's blue trichrome) ([2]; nebulized): ameliorates bleomycin-induced lung fibrosis; also recorded: rescued
- toxicity (proliferative response of splenic T cells to α-CD3) (splenic T cells; 50 μg/kg/day, day 7 to 21): no toxicity
- systemic distribution (splenic T cells; nebulized, inferred from lack of splenic T cell response): little systemic distribution
- phospho-Thr^334-MAPKAPK2 staining (activated form of MK2) in lung ([3]; 50 μg/kg daily intraperitoneal): decreased phospho-Thr^334-MAPKAPK2 staining
- phospho-Thr^334-MAPKAPK2 staining (activated form of MK2) in lung ([3]; 50 μg/kg daily nebulized): as effective as conventional systemic injections in attenuating MK2 activation; also recorded: decreased phospho-Thr^334-MAPKAPK2 staining
- plasma level of TNF-α (TNF-α; intraperitoneal): significantly reduced
- plasma level of TNF-α (TNF-α; nebulized): significantly reduced
- inhibition at 100 µM (MAPKAP-K2 (h)): > 65%
- inhibition at 100 µM (MAPKAP-K3 (h)): > 65%
- inhibition at 100 µM (TrkB (h)): > 65%
- activity at 100 µM (p70S6K (h)): 89%
- % activity (MLCK (h)): 85%
- % activity (SGK (h)): 128%
- plasma level of IL-6 (IL-6; intraperitoneal): significantly reduced
- plasma level of IL-6 (IL-6; nebulized): significantly reduced
- level of α-SMA in bleomycin-injured lungs ([4]; 50 μg/kg/day intraperitoneal): inhibits myofibroblast alpha-smooth muscle actin (α-SMA) activation; also recorded: significantly attenuated
- level of α-SMA in bleomycin-injured lungs ([4]; 50 μg/kg/day nebulizer): inhibits myofibroblast alpha-smooth muscle actin (α-SMA) activation; also recorded: significantly attenuated
- protein level of α-smooth muscle actin (α-SMA) [5]: effectively prevented myofibroblast activation
- protein level of fibronectin (secreted fragments in conditioned media) [6]: effectively prevented myofibroblast activation
